# Measured values: patent US10286034B2, “Uses of bremelanotide in therapy for female sexual dysfunction” (Palatin Technologies, Inc., priority 2012, dated 2019)
# Assay: Example 1: plasma pharmacokinetics after in-clinic subcutaneous dose
# Format: in vivo, human
# Protocol: Ambulatory blood pressure monitoring was conducted following both placebo and randomized treatment group in-clinic administrations. Three periods of ambulatory blood pressure monitoring were included, the first period was from before to 24 hours after a single, in-clinic dose of placebo (to establish a baseline); the second and third periods occurred from before to 24 hours after each of 2 single, in-clinic doses of double-blind treatment, administered within 14 days of each other. Blood samples for pharmacokinetic analysis were collected before and at 0.5, 1.0, and 2.0 hours after each in-clinic bremelanotide single-dose treatment (double-blind only), to permit analysis of concentration-response relationships.
# Mean pharmacokinetic parameters were determined by bremelanotide dose and visit, including Cmax determinations (the highest ng/mL concentration at either 0.5 or 1 hour post administration) and AUC determinations at two hours and, for a subset of subjects in each group, at four hours.
# The Cmax for the mean curve was calculated by averaging the concentrations at each time point (0.5, 1, 2 and 4 hours), and this is shown in FIG. 3.
structure (smiles),measurement,setting,value
"CCCC[C@H](NC(C)=O)C(=O)N[C@H]1CC(=O)NCCCC[C@@H](C(=O)O)NC(=O)[C@H](Cc2c[nH]c3ccccc23)NC(=O)[C@H](CCCNC(=N)N)NC(=O)[C@@H](Cc2ccccc2)NC(=O)[C@H](Cc2c[nH]cn2)NC1=O [bremelanotide, Ac-Nle-cyclo(-Asp-His-D-Phe-Arg-Trp-Lys)-OH]",AUC(0-2 h) % CV,"0.75 mg SC, Visit 5",24%
same,AUC(0-2 h) Max,"0.75 mg SC, Visit 5",85 ng·h/mL
same,AUC(0-2 h) Mean,"0.75 mg SC, Visit 5",53 ng·h/mL
same,AUC(0-2 h) Median,"0.75 mg SC, Visit 5",52 ng·h/mL
same,AUC(0-2 h) Min,"0.75 mg SC, Visit 5",25 ng·h/mL
same,AUC(0-4 h) % CV,"0.75 mg SC, Visit 5",23%
same,AUC(0-4 h) Max,"0.75 mg SC, Visit 5",126 ng·h/mL
same,AUC(0-4 h) Mean,"0.75 mg SC, Visit 5",84 ng·h/mL
same,AUC(0-4 h) Median,"0.75 mg SC, Visit 5",80 ng·h/mL
same,AUC(0-4 h) Min,"0.75 mg SC, Visit 5",50 ng·h/mL
same,Cmax % CV,"0.75 mg SC, Visit 5",27%
same,Cmax Max,"0.75 mg SC, Visit 5",60 ng/mL
same,Cmax Median,"0.75 mg SC, Visit 5",36 ng/mL
same,Cmax Min,"0.75 mg SC, Visit 5",17 ng/mL
same,AUC(0-2 h) % CV,"0.75 mg SC, Visit 7",24%
same,AUC(0-2 h) Max,"0.75 mg SC, Visit 7",92 ng·h/mL
same,AUC(0-2 h) Mean,"0.75 mg SC, Visit 7",53 ng·h/mL
same,AUC(0-2 h) Median,"0.75 mg SC, Visit 7",52 ng·h/mL
same,AUC(0-2 h) Min,"0.75 mg SC, Visit 7",26 ng·h/mL
same,AUC(0-4 h) % CV,"0.75 mg SC, Visit 7",20%
same,AUC(0-4 h) Max,"0.75 mg SC, Visit 7",120 ng·h/mL
same,AUC(0-4 h) Mean,"0.75 mg SC, Visit 7",80 ng·h/mL
same,AUC(0-4 h) Median,"0.75 mg SC, Visit 7",79 ng·h/mL
same,AUC(0-4 h) Min,"0.75 mg SC, Visit 7",51 ng·h/mL
same,Cmax % CV,"0.75 mg SC, Visit 7",27%
same,Cmax Max,"0.75 mg SC, Visit 7",78 ng/mL
same,Cmax Mean,"0.75 mg SC, Visit 7",38 ng/mL
same,Cmax Min,"0.75 mg SC, Visit 7",20 ng/mL
same,AUC(0-2 h) % CV,"1.25 mg SC, Visit 5",25%
same,AUC(0-2 h) Max,"1.25 mg SC, Visit 5",148 ng·h/mL
same,AUC(0-2 h) Mean,"1.25 mg SC, Visit 5",86 ng·h/mL
same,AUC(0-2 h) Median,"1.25 mg SC, Visit 5",81 ng·h/mL
same,AUC(0-2 h) Min,"1.25 mg SC, Visit 5",42 ng·h/mL
same,AUC(0-4 h) % CV,"1.25 mg SC, Visit 5",20%
same,AUC(0-4 h) Max,"1.25 mg SC, Visit 5",187 ng·h/mL
same,AUC(0-4 h) Median,"1.25 mg SC, Visit 5",136 ng·h/mL
same,AUC(0-4 h) Min,"1.25 mg SC, Visit 5",86 ng·h/mL
same,Cmax % CV,"1.25 mg SC, Visit 5",31%
same,Cmax Max,"1.25 mg SC, Visit 5",126 ng/mL
same,Cmax Mean,"1.25 mg SC, Visit 5",60 ng/mL
same,Cmax Min,"1.25 mg SC, Visit 5",29 ng/mL
same,AUC(0-2 h) % CV,"1.25 mg SC, Visit 7",25%
same,AUC(0-2 h) Max,"1.25 mg SC, Visit 7",144 ng·h/mL
same,AUC(0-2 h) Mean,"1.25 mg SC, Visit 7",84 ng·h/mL
same,AUC(0-2 h) Median,"1.25 mg SC, Visit 7",84 ng·h/mL
same,AUC(0-2 h) Min,"1.25 mg SC, Visit 7",24 ng·h/mL
same,AUC(0-4 h) % CV,"1.25 mg SC, Visit 7",25%
same,AUC(0-4 h) Max,"1.25 mg SC, Visit 7",199 ng·h/mL
same,AUC(0-4 h) Mean,"1.25 mg SC, Visit 7",142 ng·h/mL
same,AUC(0-4 h) Median,"1.25 mg SC, Visit 7",144 ng·h/mL
same,AUC(0-4 h) Min,"1.25 mg SC, Visit 7",39 ng·h/mL
same,Cmax % CV,"1.25 mg SC, Visit 7",33%
same,Cmax Max,"1.25 mg SC, Visit 7",150 ng/mL
same,Cmax Mean,"1.25 mg SC, Visit 7",60 ng/mL
same,Cmax Median,"1.25 mg SC, Visit 7",60 ng/mL
same,Cmax Min,"1.25 mg SC, Visit 7",18 ng/mL
same,AUC(0-2 h) % CV,"1.75 mg SC, Visit 5",23%
same,AUC(0-2 h) Max,"1.75 mg SC, Visit 5",171 ng·h/mL
same,AUC(0-2 h) Min,"1.75 mg SC, Visit 5",17 ng·h/mL
same,AUC(0-4 h) % CV,"1.75 mg SC, Visit 5",29%
same,AUC(0-4 h) Max,"1.75 mg SC, Visit 5",289 ng·h/mL
same,AUC(0-4 h) Median,"1.75 mg SC, Visit 5",179 ng·h/mL
same,AUC(0-4 h) Min,"1.75 mg SC, Visit 5",25 ng·h/mL
same,Cmax % CV,"1.75 mg SC, Visit 5",25%
same,Cmax Mean,"1.75 mg SC, Visit 5",77 ng/mL
same,Cmax Median,"1.75 mg SC, Visit 5",78 ng/mL
same,AUC(0-2 h) % CV,"1.75 mg SC, Visit 7",25%
same,AUC(0-2 h) Max,"1.75 mg SC, Visit 7",176 ng·h/mL
same,AUC(0-2 h) Median,"1.75 mg SC, Visit 7",111 ng·h/mL
same,AUC(0-2 h) Min,"1.75 mg SC, Visit 7",28 ng·h/mL
same,AUC(0-4 h) % CV,"1.75 mg SC, Visit 7",25%
same,AUC(0-4 h) Max,"1.75 mg SC, Visit 7",276 ng·h/mL
same,AUC(0-4 h) Mean,"1.75 mg SC, Visit 7",184 ng·h/mL
same,AUC(0-4 h) Median,"1.75 mg SC, Visit 7",180 ng·h/mL
same,AUC(0-4 h) Min,"1.75 mg SC, Visit 7",72 ng·h/mL
same,Cmax % CV,"1.75 mg SC, Visit 7",25%
same,Cmax Max,"1.75 mg SC, Visit 7",127 ng/mL
same,Cmax Mean,"1.75 mg SC, Visit 7",78 ng/mL
same,Cmax Median,"1.75 mg SC, Visit 7",77 ng/mL
same,Cmax Min,"1.75 mg SC, Visit 7",27 ng/mL
same,Cmax % CV,1.75 mg subcutaneous dose,25%
same,median Cmax,1.75 mg subcutaneous dose,78 ng/mL
